Some test systems named below: K-562 leukemia; MDA-MB-231 breast; NCI-H460 lung; OVCAR-3 ovarian; OVCAR-4 ovarian; OVCAR-8 ovarian; PC-3 prostate; T-47D breast; TK-10 renal; UACC-62 melanoma.
What all share (experiment): NCI-60 cell line screen, 48 h

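Results reflect a 48-hour exposure of cells in 96-well plates to compound at five concentrations. Here, GI50 denotes the concentration required for 50% inhibition of growth. TGI: total growth inhibition.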 Some results are limits rather than exact numbers.

As to `O=C(CN/C=C\C(=O)c1cc(Cl)ccc1Cl)c1ccccc1`, the GI50 in the assay with K-562 leukemia was 61.2 µM; with MDA-MB-231 breast, 21.6 µM; in the assay on NCI-H460 lung it was 32.3 µM; with OVCAR-3 ovarian, 26 µM; in the assay on OVCAR-4 ovarian, 49.8 µM; in the assay on OVCAR-8 ovarian, 26.4 µM. In addition, the GI50 in the assay on PC-3 prostate is 26 µM; in the assay on T-47D breast it was 33.4 µM; in the assay with TK-10 renal it was 26 µM; in the assay with UACC-62 melanoma, 20.7 µM. Further, the TGI in the assay on K-562 leukemia was over 100 µM; with MDA-MB-231 breast it was 47.5 µM; with NCI-H460 lung, over 100 µM; in the assay on OVCAR-3 ovarian it was 85.7 µM; in the assay on OVCAR-4 ovarian it was over 100 µM; in the assay on OVCAR-8 ovarian, 71.4 µM. Moreover, the TGI in the assay with PC-3 prostate is 67 µM; in the assay on T-47D breast, over 100 µM; with TK-10 renal, 73.7 µM; with UACC-62 melanoma it was 52 µM.

Turning to `Cc1cc(Cl)ccc1Nc1nc(C(F)(F)F)ccc1C(=O)N/N=C/c1c(Cl)cccc1Cl`, the GI50 with K-562 leukemia is 0.253 µM; in the assay with MDA-MB-231 breast, 0.249 µM; in the assay with NCI-H460 lung, 0.322 µM; in the assay on OVCAR-3 ovarian it was 0.102 µM; in the assay on OVCAR-4 ovarian, 0.289 µM; in the assay with OVCAR-8 ovarian, 0.445 µM. Besides, the GI50 is 0.268 µM with PC-3 prostate, 0.331 µM in the assay with T-47D breast, 0.316 µM in the assay with TK-10 renal and 0.489 µM in the assay with UACC-62 melanoma. Also, the TGI is 4.39 µM in the assay with NCI-H460 lung; 0.38 µM with OVCAR-3 ovarian; over 100 µM with OVCAR-4 ovarian; over 100 µM in the assay with OVCAR-8 ovarian; 1.98 µM in the assay on T-47D breast; 1.79 µM in the assay on TK-10 renal. In the assay on UACC-62 melanoma, this molecule had a TGI of 6.38 µM.

Turning to `OCCCNC(=S)Nc1ccc(-c2nc3ccccc3s2)cc1`, the GI50 in the assay with K-562 leukemia was 29.7 µM; with MDA-MB-231 breast it was 16.5 µM; in the assay with NCI-H460 lung, 25.9 µM; with OVCAR-3 ovarian it was 15 µM; with OVCAR-4 ovarian, 28.1 µM; with OVCAR-8 ovarian, 33.7 µM. Further, the GI50 is 27.7 µM with PC-3 prostate, 16.9 µM with T-47D breast, 19.3 µM in the assay on TK-10 renal and 18.6 µM in the assay with UACC-62 melanoma. For the same molecule, the TGI in the assay on K-562 leukemia was over 100 µM; in the assay with MDA-MB-231 breast it was 43.5 µM; in the assay on NCI-H460 lung, over 100 µM; with OVCAR-3 ovarian, 59.8 µM; in the assay with OVCAR-4 ovarian it was over 100 µM; in the assay on OVCAR-8 ovarian it was 91.9 µM. Besides, the TGI in the assay with PC-3 prostate was over 100 µM; in the assay on T-47D breast it was over 100 µM; in the assay with TK-10 renal, 55.8 µM; in the assay with UACC-62 melanoma it was 41 µM.

As for `Cn1cc(C2=C(c3cccc(NCC(O)CO)c3)C(=O)NC2=O)c2cc(Cl)ccc21` (configuration not stated), the GI50 in the assay with K-562 leukemia was 2.19 µM; with MDA-MB-231 breast, 5.94 µM; in the assay with NCI-H460 lung, 5.45 µM; in the assay on OVCAR-3 ovarian, 1.06 µM; with OVCAR-4 ovarian, 1.87 µM; with OVCAR-8 ovarian it was 5.08 µM. Besides, the GI50 in the assay on PC-3 prostate was 2.88 µM; in the assay on T-47D breast, 4.29 µM; in the assay with TK-10 renal, 5.67 µM; in the assay with UACC-62 melanoma, 4.66 µM. The TGI in the assay on K-562 leukemia was over 25 µM; with MDA-MB-231 breast, 15.5 µM; with NCI-H460 lung, over 25 µM; in the assay with OVCAR-3 ovarian, 7.78 µM; with OVCAR-4 ovarian, 11.6 µM; in the assay on OVCAR-8 ovarian, 17.4 µM. In addition, the TGI is 12.9 µM in the assay with PC-3 prostate, 15 µM with T-47D breast, 16.8 µM in the assay on TK-10 renal and 11.6 µM with UACC-62 melanoma.

Consider `COc1ccc(OC)c2c3c(ncc12)-c1cc2c(cc1C3)OCO2`, for which the GI50 with K-562 leukemia was 24.6 µM; in the assay with MDA-MB-231 breast, 4.76 µM; in the assay with NCI-H460 lung, 5.6 µM; with OVCAR-3 ovarian it was 26.9 µM; with OVCAR-4 ovarian, over 100 µM; in the assay on OVCAR-8 ovarian, 9.48 µM. For the same molecule, the GI50 in the assay on PC-3 prostate, with T-47D breast, in the assay on TK-10 renal and in the assay on UACC-62 melanoma was over 100 µM throughout. Moreover, the TGI with K-562 leukemia, in the assay with MDA-MB-231 breast, with NCI-H460 lung, in the assay on OVCAR-3 ovarian, in the assay on OVCAR-4 ovarian and in the assay on OVCAR-8 ovarian was over 100 µM throughout. Further, the TGI with PC-3 prostate, in the assay on T-47D breast, with TK-10 renal and in the assay on UACC-62 melanoma was over 100 µM throughout.

Regarding `COc1cccc(-c2cc(NCc3ccc4c(c3)OCO4)nc(N)n2)c1`, the GI50 in the assay on K-562 leukemia is 0.041 µM; in the assay with MDA-MB-231 breast, 0.228 µM; in the assay on NCI-H460 lung, 0.0428 µM; in the assay with OVCAR-3 ovarian, 0.0409 µM; with OVCAR-4 ovarian it was 0.225 µM; in the assay on OVCAR-8 ovarian it was 0.123 µM. Besides, the GI50 with PC-3 prostate was 0.0868 µM; with T-47D breast, 16.9 µM; with TK-10 renal, 8.96 µM; with UACC-62 melanoma, 0.0546 µM. Moreover, the TGI with K-562 leukemia was over 34 µM; in the assay on MDA-MB-231 breast, 13.7 µM; with NCI-H460 lung it was 9.59 µM; in the assay with OVCAR-3 ovarian, 0.988 µM; with OVCAR-4 ovarian, 27.5 µM; in the assay with OVCAR-8 ovarian it was 5.2 µM. Further, the TGI in the assay with PC-3 prostate was found to be 48.3 µM; in the assay with T-47D breast, 50.6 µM; in the assay on TK-10 renal, 29 µM; in the assay on UACC-62 melanoma it was 18.1 µM.

In the case of `C(#Cc1ccccc1C#Cc1ccccn1)c1ccc(OCCCCCCOc2ccc(C#Cc3ccccc3C#Cc3ccccn3)cc2)cc1`, the GI50 in the assay on K-562 leukemia is 1.81 µM; with MDA-MB-231 breast, 2.47 µM; in the assay with NCI-H460 lung, 1.62 µM; in the assay with OVCAR-3 ovarian, 2.31 µM; in the assay on OVCAR-4 ovarian, 2.7 µM; in the assay on OVCAR-8 ovarian, 4.16 µM. Further, the GI50 in the assay with PC-3 prostate is 5.18 µM; with T-47D breast it was 1.52 µM; in the assay with TK-10 renal it was 5.33 µM; with UACC-62 melanoma it was 0.35 µM. Also, the TGI in the assay with K-562 leukemia worked out at 18.5 µM; in the assay on MDA-MB-231 breast it was 9.64 µM; in the assay with NCI-H460 lung it was 6.65 µM; with OVCAR-3 ovarian it was 9.16 µM; in the assay on OVCAR-4 ovarian it was 11.5 µM; in the assay on OVCAR-8 ovarian it was 14.6 µM. For the same molecule, the TGI in the assay with PC-3 prostate is 14 µM; in the assay on T-47D breast, 14.1 µM; with TK-10 renal, 15.8 µM; in the assay with UACC-62 melanoma, 5.46 µM.

In the case of `O=S(=O)(c1ccccc1)C1CN(Cc2ccccc2)CCN(Cc2ccccc2)C1`, the TGI in the assay on K-562 leukemia is over 100 µM; in the assay on MDA-MB-231 breast, over 100 µM; in the assay with NCI-H460 lung, over 100 µM; in the assay on OVCAR-3 ovarian, over 95.8 µM; with OVCAR-4 ovarian it was over 72.6 µM; with OVCAR-8 ovarian, over 60.3 µM. The TGI was 45.3 µM with PC-3 prostate, over 100 µM in the assay on T-47D breast, over 100 µM with TK-10 renal and over 68.1 µM with UACC-62 melanoma.

For the origin of these results see PubChem BioAssay (NCI).
